Results taken from PubChem BioAssay (NCI).
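Results reflect a 48-hour exposure of cells in 96-well plates to compound at five concentrations. At the GI50, growth is halved. Definition used: TGI = concentration required for complete inhibition of growth.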

Experiments:
Assay in all cases: inhibition of tumour cell growth, NCI panel, 48 h
SNB-75 CNS = test system: SNB-75 CNS
SK-MEL-28 melanoma = test system: SK-MEL-28 melanoma
MDA-MB-231 breast = test system: MDA-MB-231 breast
CCRF-CEM leukemia = test system: CCRF-CEM leukemia
SF-268 CNS = test system: SF-268 CNS
SR leukemia = test system: SR leukemia
NCI-H460 lung = test system: NCI-H460 lung
786-0 renal = test system: 786-0 renal
NCI-H522 lung = test system: NCI-H522 lung
UACC-62 melanoma = test system: UACC-62 melanoma
DU-145 prostate = test system: DU-145 prostate
BT-549 breast = test system: BT-549 breast
M14 melanoma = test system: M14 melanoma
SK-OV-3 ovarian = test system: SK-OV-3 ovarian
MALME-3M melanoma = test system: MALME-3M melanoma
SN12C renal = test system: SN12C renal
HOP-92 NSCLC = test system: HOP-92 NSCLC
NCI-H226 lung = test system: NCI-H226 lung
T-47D breast = test system: T-47D breast
RXF 393 renal = test system: RXF 393 renal
HOP-62 NSCLC = test system: HOP-62 NSCLC
MDA-MB-435 = test system: MDA-MB-435
K-562 leukemia = test system: K-562 leukemia
OVCAR-3 ovarian = test system: OVCAR-3 ovarian
HCT-116 colon = test system: HCT-116 colon
SK-MEL-2 melanoma = test system: SK-MEL-2 melanoma
TK-10 renal = test system: TK-10 renal
MCF7 breast = test system: MCF7 breast
EKVX NSCLC = test system: EKVX NSCLC
SK-MEL-5 melanoma = test system: SK-MEL-5 melanoma
OVCAR-4 ovarian = test system: OVCAR-4 ovarian
SF-539 CNS = test system: SF-539 CNS
CAKI-1 renal = test system: CAKI-1 renal
HCT-15 colon = test system: HCT-15 colon
IGROV1 ovarian = test system: IGROV1 ovarian
HL-60(TB) leukemia = test system: HL-60(TB) leukemia
UACC-257 melanoma = test system: UACC-257 melanoma
UO-31 renal = test system: UO-31 renal
PC-3 prostate = test system: PC-3 prostate
OVCAR-5 ovarian = test system: OVCAR-5 ovarian
HT29 colon = test system: HT29 colon
NCI/ADR-RES ovarian = test system: NCI/ADR-RES ovarian
A498 renal = test system: A498 renal
OVCAR-8 ovarian = test system: OVCAR-8 ovarian
U251 CNS = test system: U251 CNS
SW-620 colon = test system: SW-620 colon
KM12 colon = test system: KM12 colon
SF-295 CNS = test system: SF-295 CNS
A549 NSCLC = test system: A549 NSCLC
HCC-2998 colon = test system: HCC-2998 colon
SNB-19 CNS = test system: SNB-19 CNS
ACHN renal = test system: ACHN renal
LOX IMVI melanoma = test system: LOX IMVI melanoma
RPMI-8226 leukemia = test system: RPMI-8226 leukemia
MOLT-4 leukemia = test system: MOLT-4 leukemia
COLO 205 colon = test system: COLO 205 colon

Work on `C/C(=N\NC(=S)Nc1ccc(Br)cc1)c1cc2ccccc2oc1=O` yielded a GI50 (SNB-75 CNS) of 0.615 µM, a TGI (SNB-75 CNS) of 4.27 µM and a GI50 (SK-MEL-28 melanoma) of 0.872 µM. For the same compound, the TGI (SK-MEL-28 melanoma) was 13.1 µM, the GI50 (MDA-MB-231 breast) was 0.956 µM and the TGI (MDA-MB-231 breast) was 25.2 µM. The GI50 (CCRF-CEM leukemia) was 0.464 µM, the TGI (CCRF-CEM leukemia) was 9.51 µM and the GI50 (SF-268 CNS) was 0.883 µM. The TGI (SF-268 CNS) was 17.2 µM, the GI50 (SR leukemia) was 0.314 µM and the TGI (SR leukemia) was 2.33 µM. The GI50 (NCI-H460 lung) was 0.462 µM, the TGI (NCI-H460 lung) was 4.58 µM and the GI50 (786-0 renal) was 2.46 µM. For the same compound, the TGI (786-0 renal) was 13.5 µM, the GI50 (NCI-H522 lung) was 0.582 µM and the TGI (NCI-H522 lung) was 4.68 µM. The GI50 (UACC-62 melanoma) was 0.476 µM, the TGI (UACC-62 melanoma) was 3.71 µM and the GI50 (DU-145 prostate) was 1.79 µM. The TGI (DU-145 prostate) was 25.8 µM, the GI50 (BT-549 breast) was 1.26 µM and the TGI (BT-549 breast) was 6.36 µM. The GI50 (M14 melanoma) was 0.604 µM, the TGI (M14 melanoma) was 2.22 µM and the GI50 (SK-OV-3 ovarian) was 3.12 µM. It also gave a TGI (SK-OV-3 ovarian) of 11.6 µM, a GI50 (MALME-3M melanoma) of 1.12 µM and a TGI (MALME-3M melanoma) of 7 µM. For the same compound, the GI50 (SN12C renal) was 1.59 µM, the TGI (SN12C renal) was 15.2 µM and the GI50 (HOP-92 NSCLC) was 1.21 µM. The TGI (HOP-92 NSCLC) was 18 µM, the GI50 (NCI-H226 lung) was 1.28 µM and the TGI (NCI-H226 lung) was 5.24 µM. The GI50 (T-47D breast) was 0.952 µM, the TGI (T-47D breast) was 11.9 µM and the GI50 (RXF 393 renal) was 1.45 µM. It also gave a TGI (RXF 393 renal) of 4 µM, a GI50 (HOP-62 NSCLC) of 0.841 µM and a TGI (HOP-62 NSCLC) of 12.6 µM. It also gave a GI50 (MDA-MB-435) of 0.353 µM, a TGI (MDA-MB-435) of 11.9 µM and a GI50 (K-562 leukemia) of 0.42 µM. The TGI (K-562 leukemia) was 21.1 µM, the GI50 (OVCAR-3 ovarian) was 0.427 µM and the TGI (OVCAR-3 ovarian) was 13 µM. It also gave a GI50 (HCT-116 colon) of 0.579 µM, a TGI (HCT-116 colon) of 12.5 µM and a GI50 (SK-MEL-2 melanoma) of 0.789 µM. It also gave a TGI (SK-MEL-2 melanoma) of 8.34 µM, a GI50 (TK-10 renal) of 4.65 µM and a TGI (TK-10 renal) of 28.3 µM. The GI50 (MCF7 breast) was 0.87 µM, the TGI (MCF7 breast) was 10.9 µM and the GI50 (EKVX NSCLC) was 2.85 µM. It also gave a TGI (EKVX NSCLC) of 30.8 µM, a GI50 (SK-MEL-5 melanoma) of 1.19 µM and a TGI (SK-MEL-5 melanoma) of 3.5 µM. The GI50 (OVCAR-4 ovarian) was 2.24 µM, the TGI (OVCAR-4 ovarian) was 49.7 µM and the GI50 (SF-539 CNS) was 1.33 µM. It also gave a TGI (SF-539 CNS) of 10.5 µM, a GI50 (CAKI-1 renal) of 0.561 µM and a TGI (CAKI-1 renal) of 9.94 µM. It also gave a GI50 (HCT-15 colon) of 0.404 µM, a TGI (HCT-15 colon) of 13.5 µM and a GI50 (IGROV1 ovarian) of 0.84 µM. The TGI (IGROV1 ovarian) was 15.3 µM, the GI50 (HL-60(TB) leukemia) was 0.44 µM and the TGI (HL-60(TB) leukemia) was 3.08 µM. The GI50 (UACC-257 melanoma) was 2.24 µM, the TGI (UACC-257 melanoma) was 8.56 µM and the GI50 (UO-31 renal) was 0.587 µM. It also gave a TGI (UO-31 renal) of 10.4 µM, a GI50 (PC-3 prostate) of 0.833 µM and a TGI (PC-3 prostate) of 14 µM. It also gave a GI50 (OVCAR-5 ovarian) of 2.46 µM, a TGI (OVCAR-5 ovarian) of 14.2 µM and a GI50 (HT29 colon) of 3.72 µM. The TGI (HT29 colon) was 14.4 µM, the GI50 (NCI/ADR-RES ovarian) was 0.523 µM and the TGI (NCI/ADR-RES ovarian) was 12.8 µM. The GI50 (A498 renal) was 14.4 µM, the TGI (A498 renal) was 31.4 µM and the GI50 (OVCAR-8 ovarian) was 1.12 µM. For the same compound, the TGI (OVCAR-8 ovarian) was 11.1 µM, the GI50 (U251 CNS) was 0.64 µM and the TGI (U251 CNS) was 12 µM. For the same compound, the GI50 (SW-620 colon) was 0.892 µM, the TGI (SW-620 colon) was 15.7 µM and the GI50 (KM12 colon) was 0.6 µM. For the same compound, the TGI (KM12 colon) was 8.23 µM, the GI50 (SF-295 CNS) was 2.49 µM and the TGI (SF-295 CNS) was 7.18 µM. For the same compound, the GI50 (A549 NSCLC) was 2.39 µM, the TGI (A549 NSCLC) was 13.4 µM and the GI50 (HCC-2998 colon) was 1.69 µM. It also gave a TGI (HCC-2998 colon) of 5.52 µM, a GI50 (SNB-19 CNS) of 1.41 µM and a TGI (SNB-19 CNS) of 24.6 µM. The GI50 (ACHN renal) was 0.76 µM, the TGI (ACHN renal) was 17.1 µM and the GI50 (LOX IMVI melanoma) was 0.53 µM. It also gave a TGI (LOX IMVI melanoma) of 5.34 µM, a GI50 (RPMI-8226 leukemia) of 1.21 µM and a TGI (RPMI-8226 leukemia) of 11.2 µM. For the same compound, the GI50 (MOLT-4 leukemia) was 0.46 µM, the TGI (MOLT-4 leukemia) was 12 µM and the GI50 (COLO 205 colon) was 3.34 µM. For the same compound, the TGI (COLO 205 colon) was 12.1 µM.
